The text below walks through data of patent EP1222194B1, “7-ACYLAMINO-3-HETEROARYLTHIO-3-CEPHEM CARBOXYLIC ACID ANTIBIOTICS AND PRODRUGS THEREOF” (priority 1999, dated 2001).

≈ marks a conversion by molar mass, not a printed value.

Data set [1] has as its system E. faecalis VanB (Van^R). Briefly: Broth microdilution MIC (NCCLS). The data set is classed as cell-based. Particulars: Enterococcus faecalis, Mueller-Hinton Broth, 24 h at 35 °C. As to the method: (§1) Compounds were evaluated for antimicrobial activity against a panel of bacterial strains using a broth microdilution assay performed as recommended by the NCCLS (1). The minimum inhibitory concentration (MIC) was defined as the lowest concentration of drug which prevented the growth of the bacteria. The following 16 organisms constituted the primary panel of evaluation:
(§2) For this primary panel, the assay was performed in Mueller-Hinton Broth (MHB) with a final bacterial inoculum of 5 x 10^5 CFU/mL (from an early-log phase culture) and a final volume of 100 µL. Control drugs, including imipenem, vancomycin, Penicillin G, dicloxacillin (vs. MSSA ATCC29213 only), and new compounds were prepared at a concentration equivalent to 2-fold the desired final concentration. Dilution of compounds were prepared directly in the plates by serial 2-fold dilution using a multichannel pipette. Positive and negative growth control were included in each plate.
(§3) The bacterial inocula were prepared as follows. For each strain one isolated colony was used to inoculate a volume of 8 mL of Mueller-Hinton broth and these cultures were incubated overnight (20h) at 35 °C in a shaking incubator. At the exception of Enterococcus strains, culture were then diluted 1:10 and allowed to grow for an additional one hour at 35 °C in a shaking incubator. The inocula were prepared by diluting the early log-phase (1h) cultures 1:1000 with fresh Mueller-Hinton broth. E. faecium and E. faecalis were prepared by diluting overnight cultures 1:333 and 1:666, respectively, with fresh Mueller-Hinton broth . A volume of 50 µL of the inocula was added to each well. […] The exact inocula were determined by applying […] of 10-fold serial dilution of the bacterial suspensions on TSA. After overnight incubation at 35 °C, colony forming units were manually counted.
(§4) Microtiter plates were incubated during 24 h at 35 °C and were read using a microtiterplate reader (Molecular Devices) at 650 nm as well as by visual observation using a microtiterplate reading mirror.
For orientation: Broth dilution looks for growth in wells or tubes with falling amounts of substance.

Data set [2] deals with E. coli ATCC25992. Briefly: Broth microdilution MIC (NCCLS). The data set is classed as cell-based. Particulars: Escherichia coli, Mueller-Hinton Broth, 24 h at 35 °C. As to the method: as §1, §2, §3, §4
The test system of data set [3] is S. aureus 76 (Meth^R)(lac^+). The data set can be described thus: Broth microdilution MIC (NCCLS). The data set is classed as cell-based. Particulars: Staphylococcus aureus, Mueller-Hinton Broth, 24 h at 35 °C. As to the method: as §1, §2, §3, §4
Data set [4] deals with E. faecium ATCC 35667. Briefly: Broth microdilution MIC (NCCLS). The data set is classed as cell-based. Particulars: Enterococcus faecium, ATCC35667, Mueller-Hinton Broth, 24 h at 35 °C. The protocol: as §1, §2, §3, §4
Data set [5] concerns S. aureus ATCC 13709 (Meth^S). Briefly: Broth microdilution MIC (NCCLS). Particulars: Staphylococcus aureus, ATCC13709, Mueller-Hinton Broth, 24 h at 35 °C. It counts as cell-based. The protocol:
as §1, §2, §3, §4

Data set [6] deals with P. aeruginosa ATCC 27853. Briefly: Broth microdilution MIC (NCCLS). The data set is classed as cell-based. The following applies: Pseudomonas aeruginosa, ATCC27853, Mueller-Hinton Broth, 24 h at 35 °C. As to the method:
as §1, §2, §3, §4

Data set [7] concerns E. faecium VanA (Van^R). Briefly: Broth microdilution MIC (NCCLS). It counts as cell-based. Particulars: Enterococcus faecium, Mueller-Hinton Broth, 24 h at 35 °C. The protocol:
as §1, §2, §3, §4

For data set [8], the system named is S. aureus Spain #356 (Meth^R). Briefly: Broth microdilution MIC (NCCLS). The data set is classed as cell-based. The following applies: Staphylococcus aureus, Mueller-Hinton Broth, 24 h at 35 °C. As to the method:
as §1, §2, §3, §4

The nature of data set [9]: Serum binding determination by ultrafiltration and HPLC. It counts as in vitro ADME. Particulars: human, serum, % of compound bound to serum as determined by HPLC. The protocol:
The more accurate measurement of binding of selected cephalosporin compounds was performed using HPLC as described below. […] Serum is placed in a shaking water bath preheated to 37 ± 2 °C for 5 to 10 minutes to heat serum to 37 °C. Serum pH is measured and recorded, while serum is 37 °C using pH paper. Measurements are taken twice, 3 minutes apart. […] After blowing for several minutes, serum is heated to 37 °C and measurements are taken twice, 3 minutes apart using pH paper to determine the pH. Store at 4 °C. The serum is stable for 7 days. Always check the pH before each use. • 2. Before any centrifugation, the centrifuge temperature must be adjusted to 25 ± 2 °C. Preheat the centrifuge by spinning for 45 minutes at the same speed to be used in the assay (1900 g) with two tubes of water in the rotor and the temperature set to 25 °C. When the centrifuge stops immediately check the temperature of the tubes of water with a calibrated thermometer. The temperature of the tubes of water must be 25 ± 2 °C. […] Continue spinning and measuring the temperature and adjusting the setting until the temperature is 25 ± 2 °C. • 3. Prepare blank ultrafiltrate by pipetting blank pH 7.4 serum into an Amicon Centrifree Micropartition devices, centrifuge: fixed angle rotor, 1900 g, 25 °C for 20 minutes. Heat ultrafiltrate in a shaking water bath preheated to 37 °C. Measure ultrafiltrate pH and adjust to the pH of the serum (7.4 ± 0.2). • 4. Pipette 190 ul of blank ultrafiltrate into a set of labeled 1.7 mL polypropylene microfuge tubes for 3 of each level. Pipette 10 µL of the appropriate standard stock 50, 200, 1000 µg/mL to make standards 2.5, 10, and 50 µg/mL respectively. Vortex each tube well. One set of the standard samples are mixed 1:1 with 0.2 M acetic acid and injected onto the HPLC (MSTD). These samples are the membrane standards and will be used to compare to the other standards. Pipette 190 ul of ultrafiltrate and spike with 10 ul of whatever solution (e.g. water) the standards are prepared in to make the zero standard. • 5. Pipette 475 µL of blank heated pH 7.4 serum into a set of labeled 1.7 mL polypropylene microfuge tubes for 2 of each (Serum A and Serum B). Pipette 25 µL of the 1000 µg/mL standard stock into each tube, vortex each tube well to make serum standard 50 µg/mL. Remove 100 µL of serum and deproteinate with 200 µL 4% TCA while vortexing to make serum time 0 (serum 50, T0). Place serum tubes in a shaking water bath at 37 °C for 10 minutes. Pipet 100 µL of serum out and deproteinate with 200 µL 4% TCA, to make serum time 10 min (serum 50, T10). Pipet 200 ul serum standard 50 µg/mL into an ultrafiltration device, which is not treated with TCA, to determine free drug in samples (Rat Serum 50). • 6. Transfer serum and standard samples to labeled Amicon Centrifree Micropartition filters, and centrifuge: 1900 g, 25 °C for 10 minutes. The extracted serum samples (T0 and T 10) are spun down and supernatant is loaded into HPLC vials. • 7. 100 µL of ultrafiltrate sample and 100 µL of 0.2 M acetic acid were mixed together to stabilize the compound in ultrafiltrate. • 8. Transfer entire stabilized ultrafiltrate solution to a labeled autoinjector HPLC vial cap with Teflon septa, and inject on HPLC.
Peak height or area is used in a weighted linear regression.
High levels of binding to human serum proteins limits the concentration of compound available for antibacterial activity in the body.

Data set [10] relates to S. aureus ATCC 29213. The data set can be described thus: Broth microdilution MIC (NCCLS). The data set is classed as cell-based. The following applies: Staphylococcus aureus, ATCC29213, Mueller-Hinton Broth, 24 h at 35 °C. As to the method:
as §1, §2, §3, §4

On to `NCCSCc1ncccc1SC1=C(C(=O)O)N2C(=O)[C@@H](NC(=O)/C(=N\O)c3nc(N)sc3Cl)[C@H]2SC1` [Cmpd 1, (7R)-7-[(Z)-2-(2-amino-5-chlorothiazol-4-yl)-2-(hydroxyimino)acetamido]-3-[2-(2-aminoethylthiomethyl)pyrid-3-ylthio]-3-cephem-4-carboxylic acid], for which the MIC in data set [1] stood at 0.13 µg/mL (≈ 0.216 µM); in data set [2], 4 µg/mL (≈ 6.64 µM); in data set [3], 1 µg/mL (≈ 1.66 µM); in [4], 0.5 µg/mL (≈ 0.83 µM); in data set [5], 0.13 µg/mL (≈ 0.216 µM); in [6], 32 µg/mL (≈ 53.1 µM). Moreover, the MIC in data set [7] and in data set [8] was 1 µg/mL (≈ 1.66 µM) throughout. In data set [9], this compound gave a fraction unbound of 0.1.

Consider `NCCSCc1ncccc1SC1=C(C(=O)O)N2C(=O)[C@@H](NC(=O)/C(=N\O)c3nsc(N)n3)[C@H]2SC1` [Cmpd 2, (7R)-7-[(Z)-2-(5-amino-1,2,4-thiadiazol-3-yl)-2-(hydroxyimino)acetamido]-3-[2-(2-aminoethylthiomethyl)pyrid-3-ylthio]-3-cephem-4-carboxylic acid], for which the MIC was 0.5 µg/mL (≈ 0.879 µM) in data set [1]; 1 µg/mL (≈ 1.76 µM) in [2]; 1 µg/mL (≈ 1.76 µM) in data set [3]; 1 µg/mL (≈ 1.76 µM) in data set [4]; greater than 32 µg/mL in [6]; 2 µg/mL (≈ 3.52 µM) in [7]. The compound also had an MIC in [8] of 1 µg/mL (≈ 1.76 µM). Further, in [9], the fraction unbound was no less than 0.2.

For `N=C(N)NCCSCc1ncccc1SC1=C(C(=O)O)N2C(=O)[C@@H](NC(=O)/C(=N\O)c3nsc(N)n3)[C@H]2SC1` [Cmpd 2-R, (7R)-7-[(Z)-2-(5-amino-1,2,4-thiadiazol-3-yl)-2-(hydroxyimino)acetamido]-3-[2-(2-guanidinoethylthiomethyl)pyrid-3-ylthio]-3-cephem-4-carboxylic acid], the MIC in data set [2] was 1 µg/mL (≈ 1.64 µM); in [3], 1 µg/mL (≈ 1.64 µM); in [10], 0.13 µg/mL (≈ 0.213 µM); in [4], 0.5 µg/mL (≈ 0.819 µM); in data set [5] it was 0.13 µg/mL (≈ 0.213 µM); in data set [6], greater than 32 µg/mL. Besides, the minimum inhibitory concentration (MIC) in data set [7] and in [8] was 1 µg/mL (≈ 1.64 µM) each time. For the same compound, in data set [9], the fraction unbound is no less than 0.2.

Turning to `N=C(N)NCCSCc1ncccc1SC1=C(C(=O)O)N2C(=O)[C@@H](NC(=O)/C(=N\O)c3nc(N)sc3Cl)[C@H]2SC1` [Cmpd 2-S, (7R)-7-[(Z)-2-(2-amino-5-chlorothiazol-4-yl)-2-(hydroxyimino)acetamido]-3-[2-(2-guanidinoethylthiomethyl)pyrid-3-ylthio]-3-cephem-4-carboxylic acid], the MIC was 0.06 µg/mL (≈ 0.0931 µM) in data set [1]; 4 µg/mL (≈ 6.21 µM) in data set [2]; 0.5 µg/mL (≈ 0.776 µM) in data set [3]; 0.13 µg/mL (≈ 0.202 µM) in data set [10]; 0.25 µg/mL (≈ 0.388 µM) in [4]; 0.06 µg/mL (≈ 0.0931 µM) in data set [5]. Besides, the MIC is greater than 32 µg/mL in [6], 0.5 µg/mL (≈ 0.776 µM) in data set [7] and 0.5 µg/mL (≈ 0.776 µM) in data set [8]. The compound also gave a fraction unbound in [9] of 0.17.

On to `NCCSCc1ccncc1SC1=C(C(=O)O)N2C(=O)[C@@H](NC(=O)/C(=N\O)c3nc(N)sc3Cl)[C@H]2SC1` [Cmpd 3, (7R)-7-[(Z)-2-(2-amino-5-chlorothiazol-4-yl)-2-(hydroxyimino)acetamido]-3-[4-(2-aminoethylthiomethyl)pyrid-3-ylthio]-3-cephem-4-carboxylic acid], for which the MIC in [1] stood at 0.5 µg/mL (≈ 0.83 µM); in [2], 4 µg/mL (≈ 6.64 µM); in data set [3], 1 µg/mL (≈ 1.66 µM); in data set [10], 0.13 µg/mL (≈ 0.216 µM); in [4], 1 µg/mL (≈ 1.66 µM); in [5], 0.13 µg/mL (≈ 0.216 µM). Further, the MIC in data set [6] stood at 32 µg/mL (≈ 53.1 µM); in [7], 2 µg/mL (≈ 3.32 µM); in [8] it was 1 µg/mL (≈ 1.66 µM). Also, the fraction unbound in data set [9] was 0.1.

In general, MIC refers to the smallest concentration in the dilution series that meets the test's criterion for growth inhibition. For orientation: fraction unbound means free concentration divided by total concentration. Low values mean little free substance, high ones much free substance.
